Assay results reported in ChEMBL document CHEMBL4033689, “Potential inhibitors of human carbonic anhydrase isozymes I and II: Design, synthesis and docking studies of new 1,3,4-thiadiazole derivatives” (Bioorg Med Chem, 2017).

These compounds were tested against Carbonic anhydrase 2 (Homo sapiens, UniProt P00918) (assay: Inhibition of carbonic anhydrase-2 in […] assessed as reduction in H+ release using CO2 as substrate by bromine thymol blue indicator based assay).

IC50 | SMILES
Not Active | O=C(CSc1nnc(Nc2ccccc2)s1)N/N=C/c1ccc(-c2ccc([N+](=O)[O-])cc2)o1
Not Active | O=C(CSc1nnc(Nc2ccccc2)s1)N/N=C/c1ccc(-c2ccc(Cl)cc2[N+](=O)[O-])o1
Not Active | O=C(CSc1nnc(Nc2ccccc2)s1)N/N=C/c1ccc(-c2ccc(Cl)c(Cl)c2)o1
